For five compounds, T/C results are on record in PubChem BioAssay AID258 (DTP/NCI, 2004).

Each structure is given as a SMILES string. Several values for one entry are separate records, joined by “and”; a condition that tells them apart may be missing. Equal values may be shown once. Inconclusive results and toxic doses are left out.

This assay has as its system CD2F1 mice, L1210 leukemia sc, survival T/C. The assay is described as follows: NCI In Vivo Anticancer Drug Screen. Data for tumor model L1210 Leukemia (subcutaneous) in CD2F1 (CDF1) mice. As to conditions: endpoint: median survival time, higher = longer survival. An outline of the steps: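 Antitumor activity is scored in tumor-bearing mice by comparing survival or tumor size of treated animals against vehicle-treated controls, reported as T/C.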

`O=c1[nH]c(=O)n(C2CC(O)C(CO)O2)cc1F` (configuration not stated): the T/C is, setting by setting: (dose: 5.0 mg/kg/injection, schedule: Q01DX009 (ip), vehicle: saline) 107 % of control; (dose: 5.0 mg/kg/injection, schedule: Q01DX009 (sc), vehicle: saline) 104 % of control; (dose: 10.0 mg/kg/injection, schedule: Q01DX009 (ip), vehicle: saline) 108 % of control; (dose: 10.0 mg/kg/injection, schedule: Q01DX009 (sc), vehicle: saline) 109 % of control; (dose: 15.6 mg/kg/injection, schedule: Q01DX006 (ip), vehicle: saline) 112 % of control; (dose: 15.6 mg/kg/injection, schedule: Q01DX009 (ip), vehicle: saline) 118 % of control. Besides, the T/C reads like this: (dose: 20.0 mg/kg/injection, schedule: Q01DX009 (ip), vehicle: saline) 119 % of control; (dose: 20.0 mg/kg/injection, schedule: Q01DX009 (sc), vehicle: saline) 106 % of control and 121 % of control; (dose: 30.0 mg/kg/injection, schedule: Q01DX009 (sc), vehicle: saline) 107 % of control; (dose: 31.3 mg/kg/injection, schedule: Q01DX006 (ip), vehicle: saline) 106 % of control; (dose: 31.3 mg/kg/injection, schedule: Q01DX009 (ip), vehicle: saline) 118 % of control; (dose: 31.3 mg/kg/injection, schedule: Q02DX005 (ip), vehicle: saline) 112 % of control. Besides, the T/C (dose: 31.3 mg/kg/injection, schedule: Q04DX003 (ip), vehicle: saline) was 112 % of control; the T/C (dose: 40.0 mg/kg/injection, schedule: Q01DX009 (ip), vehicle: saline) was 122 % of control; the T/C (dose: 40.0 mg/kg/injection, schedule: Q01DX009 (sc), vehicle: saline) is 122 % of control; the T/C (dose: 60.0 mg/kg/injection, schedule: Q01DX009 (ip), vehicle: saline) was 124 % of control; the T/C (dose: 62.5 mg/kg/injection, schedule: Q01DX001 (ip), vehicle: saline) was 112 % of control; the T/C (dose: 62.5 mg/kg/injection, schedule: Q04DX003 (ip), vehicle: saline) is 100 % of control. In addition, the T/C (dose: 80.0 mg/kg/injection, schedule: Q01DX009 (ip), vehicle: saline) was 118 % of control; the T/C (dose: 120.0 mg/kg/injection, schedule: Q01DX009 (ip), vehicle: saline) is 110 % of control; the T/C (dose: 120.0 mg/kg/injection, schedule: Q01DX009 (sc), vehicle: saline) was 106 % of control; the T/C (dose: 125.0 mg/kg/injection, schedule: Q01DX001 (ip), vehicle: saline) is 112 % of control; the T/C (dose: 125.0 mg/kg/injection, schedule: Q01DX009 (ip), vehicle: saline) was 150 % of control; the T/C (dose: 125.0 mg/kg/injection, schedule: Q02DX005 (ip), vehicle: saline) was 118 % of control. In addition, the T/C runs as follows: (dose: 125.0 mg/kg/injection, schedule: Q04DX003 (ip), vehicle: saline) 112 % of control; (dose: 130.0 mg/kg/injection, schedule: Q01DX Z (sc), vehicle: saline) 116 % of control; (dose: 160.0 mg/kg/injection, schedule: Q01DX009 (ip), vehicle: saline) 106 % of control and 123 % of control; (dose: 160.0 mg/kg/injection, schedule: Q01DX009 (sc), vehicle: saline) 112 % of control; (dose: 216.0 mg/kg/injection, schedule: Q01DX Z (sc), vehicle: saline) 116 % of control; (dose: 240.0 mg/kg/injection, schedule: Q01DX009 (ip), vehicle: saline) 96 % of control. Further, the T/C by setting is: (dose: 250.0 mg/kg/injection, schedule: Q01DX006 (ip), vehicle: saline) 162 % of control; (dose: 250.0 mg/kg/injection, schedule: Q01DX009 (ip), vehicle: saline) 162 % of control; (dose: 250.0 mg/kg/injection, schedule: Q02DX005 (ip), vehicle: saline) 150 % of control; (dose: 360.0 mg/kg/injection, schedule: Q01DX Z (sc), vehicle: saline) 116 % of control; (dose: 500.0 mg/kg/injection, schedule: Q02DX005 (ip), vehicle: saline) 156 % of control; (dose: 500.0 mg/kg/injection, schedule: Q04DX003 (ip), vehicle: saline) 150 % of control. For the same compound, the T/C (dose: 600.0 mg/kg/injection, schedule: Q01DX Z (sc), vehicle: saline) was 108 % of control and the T/C (dose: 1000.0 mg/kg/injection, schedule: Q01DX001 (ip), vehicle: saline) was 150 % of control.
Turning to `CC(=O)[C@H]1CC[C@H]2[C@@H]3C[C@H](C)C4=CC(=O)CC[C@]4(C)[C@H]3C(=O)C[C@]12C`, the T/C was 94 % of control (dose: 20.0 mg/kg/injection, schedule: Q01DX009 (ip), vehicle: saline with Tween-80); 97 % of control (dose: 20.0 mg/kg/injection, schedule: Q01DX009 (sc), vehicle: saline with Tween-80); 93 % of control (dose: 40.0 mg/kg/injection, schedule: Q01DX009 (ip), vehicle: saline with Tween-80); 98 % of control (dose: 40.0 mg/kg/injection, schedule: Q01DX009 (sc), vehicle: saline with Tween-80); 93 % of control (dose: 80.0 mg/kg/injection, schedule: Q01DX009 (ip), vehicle: saline with Tween-80); 101 % of control (dose: 80.0 mg/kg/injection, schedule: Q01DX009 (sc), vehicle: saline with Tween-80). The T/C by setting is: (dose: 160.0 mg/kg/injection, schedule: Q01DX009 (ip), vehicle: saline with Tween-80) 93 % of control; (dose: 160.0 mg/kg/injection, schedule: Q01DX009 (sc), vehicle: saline with Tween-80) 98 % of control; (dose: 320.0 mg/kg/injection, schedule: Q01DX009 (ip), vehicle: saline with Tween-80) 96 % of control; (dose: 320.0 mg/kg/injection, schedule: Q01DX009 (sc), vehicle: saline with Tween-80) 105 % of control; (dose: 640.0 mg/kg/injection, schedule: Q01DX009 (sc), vehicle: saline with Tween-80) 109 % of control.
For `COc1ccc2c(c1)-c1nn(CCCN(C)C)c3ccc([N+](=O)[O-])c(c13)N2`, the T/C was 122 % of control (dose: 3.12 mg/kg/injection, schedule: Q01DX009 (ip), vehicle: water); 161 % of control (dose: 6.25 mg/kg/injection, schedule: Q01DX009 (ip), vehicle: water); 104 % of control (dose: 25.0 mg/kg/injection, schedule: Q01DX009 (ip), vehicle: water).
In the case of `CC(=O)Oc1ccc[nH]c1=O`, the T/C by setting is: (dose: 16.7 mg/kg/injection, schedule: Q03HX027 (ip), vehicle: saline with Tween-80) 107 % of control; (dose: 33.0 mg/kg/injection, schedule: Q03HX027 (ip), vehicle: saline with Tween-80) 104 % of control; (dose: 50.0 mg/kg/injection, schedule: Q01DX009 (ip), vehicle: saline with Tween-80) 98 % of control; (dose: 66.7 mg/kg/injection, schedule: Q03HX027 (ip), vehicle: saline with Tween-80) 96 % of control; (dose: 100.0 mg/kg/injection, schedule: Q01DX009 (ip), vehicle: saline with Tween-80) 98 % of control; (dose: 133.0 mg/kg/injection, schedule: Q03HX027 (ip), vehicle: saline with Tween-80) 105 % of control. Besides, the T/C was 98 % of control (dose: 200.0 mg/kg/injection, schedule: Q01DX009 (ip), vehicle: saline with Tween-80); 108 % of control (dose: 266.0 mg/kg/injection, schedule: Q03HX027 (ip), vehicle: saline with Tween-80); 117 % of control (dose: 800.0 mg/kg/injection, schedule: Q01DX009 (ip), vehicle: saline with Tween-80).
Turning to `CS(=O)(=O)OCCCCOS(C)(=O)=O`, the T/C is, setting by setting: (dose: 8.4 mg/kg/injection, schedule: Q01DX Z (sc), vehicle: methylcellulose (MC)) 100 % of control; (dose: 14.0 mg/kg/injection, schedule: Q01DX Z (sc), vehicle: methylcellulose (MC)) 100 % of control; (dose: 23.0 mg/kg/injection, schedule: Q01DX Z (sc), vehicle: methylcellulose (MC)) 100 % of control; (dose: 39.0 mg/kg/injection, schedule: Q01DX Z (sc), vehicle: methylcellulose (MC)) 100 % of control; (dose: 65.0 mg/kg/injection, schedule: Q01DX Z (sc), vehicle: methylcellulose (MC)) 100 % of control; (dose: 108.0 mg/kg/injection, schedule: Q01DX Z (sc), vehicle: methylcellulose (MC)) 100 % of control.
